According to ChEMBL document CHEMBL5050844 (2019):

How the values were obtained:
[1] = Induction of anti-CD3/CD28 antibodies-stimulated human CD4+ T cell activation at 1.11 uM assessed fold increase in cell proliferation measured by flow cytometry analysis; assay type: functional, T cell line
[2] = Induction of anti-CD3/CD28 antibodies-stimulated human T cell activation at 1.11 uM assessed fold increase in TNF-alpha secretion measured by ELISA assay; assay type: functional, T cell line
[3] = Induction of anti-CD3/CD28 antibodies-stimulated human CD4+ T cell activation at 1.11 uM assessed fold increase in CD69 expression measured by flow cytometry analysis; assay type: functional, T cell line
[4] = Induction of allogenic human T cell activation at 3 uM assessed fold increase in cell proliferation; assay type: functional, T cell line
[5] = Induction of anti-CD3/CD28 antibodies-stimulated human T cell activation at 10 uM assessed fold increase in TNF-alpha secretion measured by ELISA assay; assay type: functional, T cell line
[6] = Induction of anti-CD3/CD28 antibodies-stimulated human T cell activation at 1.11 uM assessed fold increase in GM-CSF secretion measured by ELISA assay; assay type: functional, T cell line
[7] = Induction of activation of human CD56+ CD3- NK cells co-cultured with human K562 cells in 1:1 ratio and assessed as increase in IFN-gamma secretion at 10 uM measured by ELISA assay; assay type: functional, Natural killer cell
[8] = Induction of activation of human CD56+ CD3- NK cells co-cultured with human K562 cells in 1:1 ratio and assessed as increase in IFN-gamma secretion at 0.625 uM measured by ELISA assay; assay type: functional, Natural killer cell
[9] = Induction of anti-CD3 antibodies-stimulated human T cell activation at 1 uM assessed fold increase in IL-2 secretion measured by ELISA assay; assay type: functional, T cell line; further: reference of the scale not given here
[10] = Induction of allogenic human T cell activation at 10 uM assessed fold increase in cell proliferation; assay type: functional, T cell line
[11] = Induction of anti-CD3 antibodies-stimulated human T cell activation at 8 uM assessed fold increase in IL-2 secretion measured by ELISA assay; assay type: functional, T cell line; further: reference of the scale not given here
[12] = tested on: B cell; assay: Induction of anti-IgM-stimulated human CD20+ B cell activation at 10 to 1000 uM assessed as increase in CD69 expression measured as mean fluorescence intensity AUC by flow cytometry analysis; assay type: functional, cell-based; conditions: dose 10-1000 µM
[13] = Induction of anti-CD3/CD28 antibodies-stimulated human CD8+ T cell activation at 10 uM assessed fold increase in cell proliferation measured by flow cytometry analysis; assay type: functional, T cell line
[14] = Induction of anti-CD3/CD28 antibodies-stimulated human anergic T cell activation at 0.37 uM assessed fold increase in IFN-gamma secretion measured by ELISA assay; assay type: functional, T cell line
[15] = Induction of anti-CD3 antibodies-stimulated human exhausted T cell activation assessed fold increase in IL-2 secretion measured by ELISA assay; assay type: functional, T cell line; further: reference of the scale not given here
[16] = Induction of activation of human CD56+ CD3- NK cells co-cultured with human K562 cells in 1:1 ratio and assessed as increase in TNF-alpha secretion at 2.5 uM measured by ELISA assay; assay type: functional, Natural killer cell
[17] = Induction of anti-CD3/CD28 antibodies-stimulated human T cell activation at 4 uM assessed fold increase in CD25 expression measured by ELISA assay; assay type: functional, T cell line
[18] = Induction of anti-CD3 antibodies-stimulated human T cell activation at 1.11 uM assessed fold increase in TNF-alpha secretion measured by ELISA assay; assay type: functional, T cell line; further: reference of the scale not given here
[19] = Induction of anti-CD3 antibodies-stimulated human T cell activation at 8 uM assessed fold increase in CD25 expression measured by ELISA assay; assay type: functional, T cell line; further: reference of the scale not given here
[20] = Induction of activation of human CD56+ CD3- NK cells co-cultured with human K562 cells in 1:1 ratio and assessed as increase in IFN-gamma secretion at 2.5 uM measured by ELISA assay; assay type: functional, Natural killer cell
[21] = Induction of anti-CD3/CD28 antibodies-stimulated human CD8+ T cell activation at 10 uM assessed fold increase in CD69 expression measured by flow cytometry analysis; assay type: functional, T cell line
[22] = Induction of anti-CD3/CD28 antibodies-stimulated human anergic T cell activation at 10 uM assessed fold increase in IFN-gamma secretion measured by ELISA assay; assay type: functional, T cell line
[23] = Induction of anti-CD3/CD28 antibodies-stimulated human T cell activation at 1.11 uM assessed fold increase in IFN-gamma secretion measured by ELISA assay; assay type: functional, T cell line
[24] = Induction of anti-CD3/CD28 antibodies-stimulated human T cell activation at 10 uM assessed fold increase in GM-CSF secretion measured by ELISA assay; assay type: functional, T cell line
[25] = Induction of anti-CD3/CD28 antibodies-stimulated human CD4+ T cell activation at 10 uM assessed fold increase in CD69 expression measured by flow cytometry analysis; assay type: functional, T cell line
[26] = Induction of anti-CD3/CD28 antibodies-stimulated human CD8+ T cell activation at 1.11 uM assessed fold increase in CD69 expression measured by flow cytometry analysis; assay type: functional, T cell line
[27] = Induction of anti-CD3 antibodies-stimulated human exhausted CD4+ T cell activation assessed fold increase in CTLA4 expression measured by flow cytometry analysis; assay type: functional, T cell line; further: reference of the scale not given here
[28] = Induction of anti-CD3 antibodies-stimulated human CD4+ T cell activation at 10 uM assessed fold increase in CD69 expression measured by flow cytometry analysis; assay type: functional, T cell line; further: reference of the scale not given here
[29] = Induction of anti-CD3 antibodies-stimulated human T cell activation at 10 uM assessed fold increase in IFN-gamma secretion measured by ELISA assay; assay type: functional, T cell line; further: reference of the scale not given here
[30] = Induction of anti-CD3 antibodies-stimulated human exhausted T cell activation assessed fold increase in IFN-gamma secretion measured by ELISA assay; assay type: functional, T cell line; further: reference of the scale not given here
[31] = Induction of anti-CD3/CD28 antibodies-stimulated human T cell activation at 10 uM assessed fold increase in IFN-gamma secretion measured by ELISA assay; assay type: functional, T cell line
[32] = Induction of anti-CD3 antibodies-stimulated human T cell activation at 10 uM assessed fold increase in TNF-alpha secretion measured by ELISA assay; assay type: functional, T cell line; further: reference of the scale not given here
[33] = Induction of anti-CD3 antibodies-stimulated human CD4+ T cell activation at 1.11 uM assessed fold increase in CD69 expression measured by flow cytometry analysis; assay type: functional, T cell line; further: reference of the scale not given here
[34] = Induction of anti-CD3/CD28 antibodies-stimulated human T cell activation at 0.3 uM assessed fold increase in IL-2 secretion measured by ELISA assay; assay type: functional, T cell line
[35] = Induction of anti-CD3/CD28 antibodies-stimulated human T cell activation at 4 uM assessed fold increase in IL-2 secretion measured by ELISA assay; assay type: functional, T cell line
[36] = Induction of anti-CD3/CD28 antibodies-stimulated human T cell activation at 1 uM assessed fold increase in IL-2 secretion measured by ELISA assay; assay type: functional, T cell line
[37] = Induction of activation of human CD56+ CD3- NK cells co-cultured with human K562 cells in 1:1 ratio and assessed as increase in TNF-alpha secretion at 0.625 uM measured by ELISA assay; assay type: functional, Natural killer cell
[38] = Induction of anti-CD3 antibodies-stimulated human CD8+ T cell activation at 10 uM assessed fold increase in cell proliferation measured by flow cytometry analysis; assay type: functional, T cell line; further: reference of the scale not given here

Compound | fold change (FC) [1] | fold change (FC) [2] | fold change (FC) [3] | fold change (FC) [4] | fold change (FC) [5] | fold change (FC) [6] | fold change (FC) [7] | fold change (FC) [8] | fold change (FC) [9] | fold change (FC) [10] | fold change (FC) [11] | AUC [12] | fold change (FC) [13] | fold change (FC) [14] | fold change (FC) [15] | fold change (FC) [16] | fold change (FC) [17] | fold change (FC) [18] | fold change (FC) [19] | fold change (FC) [20] | other results
C[C@@H](c1cc2c(c(C(F)(F)F)c1)CN(c1cccc(C3(Cc4nncn4C)COC3)c1)C2=O)N1CC[C@H](F)C1 | >4 | 2.01 | 1.401 | >3 | >4 | >4 | >=5 | 2.01 | >=0.201 | >3 | >=0.201 | > 1.51 | >4 | <=2.5 | <=2.5 | 2.01 | 1.51 | 1.51 | >=1.001 | 2.01 | fold change (FC) [21]: 1.201; fold change (FC) [22]: >4.01; fold change (FC) [23]: >4; fold change (FC) [24]: >4; fold change (FC) [25]: 1.401; fold change (FC) [26]: 1.201; fold change (FC) [27]: <=1.4; fold change (FC) [28]: >1.601; fold change (FC) [29]: >4; fold change (FC) [30]: >1.61; fold change (FC) [31]: >4; fold change (FC) [32]: 2.01; fold change (FC) [33]: >1.601; fold change (FC) [34]: >=7.5; fold change (FC) [35]: >=7.5; fold change (FC) [36]: >=7.5; fold change (FC) [37]: 2.01; fold change (FC) [38]: >4
Cn1cnnc1CC1(c2cccc(NC(=O)c3nc4c(C(F)(F)F)cccc4[nH]3)c2)COC1 | >4 | 1.51 | 1.401 | <=2 | 2.01 | 1.51 | 2.01 | 2.01 | 0.101 | <=2 | >=0.201 | 0.5 | 3.01 | <=2.5 | >3.01 | 1.01 | 1.51 | 1.51 | >=1.001 | 1.01 | fold change (FC) [21]: 1.201; fold change (FC) [22]: >4.01; fold change (FC) [23]: >4; fold change (FC) [24]: >4; fold change (FC) [25]: >1.601; fold change (FC) [26]: 1.201; fold change (FC) [27]: >1.61; fold change (FC) [28]: >1.601; fold change (FC) [29]: 2.01; fold change (FC) [30]: 1.41; fold change (FC) [31]: 2.01; fold change (FC) [32]: 1.51; fold change (FC) [33]: >1.601; fold change (FC) [34]: 2.51; fold change (FC) [35]: >=7.5; fold change (FC) [36]: 5; fold change (FC) [37]: 1.01; fold change (FC) [38]: >4
C[C@H](Cc1nncn1C)c1cccc(N2Cc3c(cc(CN4CC(O)C4)cc3C(F)(F)F)C2=O)c1 | <=2 | <=1.5 | <=1.2 | <=2 | 1.51 | <=1.5 | 2.01 | 2.01 | >=0.201 | 2.01 | >=0.201 | 0.5 | 2.01 | <=2.5 | >3.01 | 2.01 | 1.31 | <=1.5 | >=1.001 | 1.01 | fold change (FC) [21]: <=1.2; fold change (FC) [22]: >4.01; fold change (FC) [23]: 2.01; fold change (FC) [24]: 1.51; fold change (FC) [25]: 1.201; fold change (FC) [26]: <=1.2; fold change (FC) [27]: >1.61; fold change (FC) [28]: 1.201; fold change (FC) [29]: <=2; fold change (FC) [30]: >1.61; fold change (FC) [31]: >4; fold change (FC) [32]: <=1.5; fold change (FC) [33]: 1.201; fold change (FC) [34]: 2.51; fold change (FC) [35]: >=7.5; fold change (FC) [36]: >=7.5; fold change (FC) [37]: 1.01; fold change (FC) [38]: <=2
Cn1cnnc1C(F)(F)[C@](C)(F)c1cccc(N2Cc3c(cc(C(=O)N4CC[C@H](O)C4)cc3C(F)(F)F)C2=O)c1 | 3.01 | <=1.5 | 1.201 | <=2 | 2.01 | 1.51 | <=1 | 1.01 | 0.101 | <=2 | >=0.201 | < 0.5 | 3.01 | <=2.5 | 2.51 | 1.01 | 1.31 | 2.01 | >=1.001 | 1.01 | fold change (FC) [21]: 1.201; fold change (FC) [22]: >4.01; fold change (FC) [23]: <=2; fold change (FC) [24]: 2.01; fold change (FC) [25]: 1.401; fold change (FC) [26]: <=1.2; fold change (FC) [27]: <=1.4; fold change (FC) [28]: >1.601; fold change (FC) [29]: 2.01; fold change (FC) [30]: <=1.4; fold change (FC) [31]: 2.01; fold change (FC) [32]: 1.51; fold change (FC) [33]: 1.201; fold change (FC) [34]: 1.01; fold change (FC) [35]: >=7.5; fold change (FC) [36]: 2.51; fold change (FC) [37]: 1.01; fold change (FC) [38]: >4
